Assay results from paper PMC13266999, “Designing Antibiotics with Inherent Resistance to Efflux as a Strategy to Revive Discovery against Multidrug-Resistant Pathogens” (Journal of Medicinal Chemistry, 2026).
In brackets after ≈: the same amount, converted by molar mass. Several values for one entry are separate records, joined by “and”; a condition that tells them apart may be missing. Identical values can stand only once. Like-named read-outs stand apart in the source and are kept apart here.

How the values were obtained:
[1] = system: E. coli; assay: MIC (microbroth dilution); format: cell-based; conditions: Escherichia coli
Protocol: All bacteria were maintained on tryptic soy agar (TSA), except Streptococcus spp., which were maintained on Columbia agar plates containing 5% horse blood. […] Bacteria were grown to stationary phase in liquid culture overnight, with shaking at 200 rpm, before being back diluted to the relevant starting concentration for each assay below. MICs were measured by the microbroth dilution method. […] Absorbance at OD600 was read on a CLARIOstar spectrophotometer (BMG Labtech) and the MIC was defined as the minimum concentration of compound where no visible growth was detected. […] MICs were also performed in the presence of the outer membrane permeator, polymyxin b nonapeptide (PMBN) following the same MIC method but with the following variation. The 2-fold dilution series of compound was prepared as above, then 50 μL of PMBN at a final concentration of 30 μg/mL was added to relevant wells, while 50 μL/well of blank media was added to the remaining wells. Bacteria were then added at 50 μL/well for a starting concentration as above. […] The MICs were read and defined as above. All animal procedures were performed by the contract research organization Pharmacology Discovery Services Taiwan in accordance with the Guide for the Care and Use of Laboratory Animals. The procedures were approved by the Institutional Ethics Committee of Pharmacology Discovery Services Taiwan, Ltd. (approval no. AB127662), in compliance with animal welfare legislation in Taiwan.

[2] = molecular target: T1, GyrA S84L mutant DNA gyrase (Staphylococcus aureus, UniProt P0A0K8+P20831, S84L); assay: DNA gyrase supercoiling inhibition assay; format: biochemical, S. aureus
T1 construct: purchased Inspiralis Ltd. (Norwich, UK)
Protocol: (§1) Gyrase inhibition was determined through biochemical assay kits from Inspiralis Ltd. (Norwich, UK), according to manufacturer’s instructions, and as described previously. Briefly, 1U of enzyme was incubated with 0.5 μg of relaxed […] DNA in the presence of compound in 1% DMSO for 30 min at 37 °C. A control reaction contained no compound but still contained 1% DMSO. The reactions were stopped through Stop Buffer addition and the DNA separated through addition of chloroform/iso-amyl alcohol (24;1). Samples were run on a 1% agarose gel at 75 V for 2 h, which was then stained with 1 μg/mL ethidium bromide and visualized using a NuGenius gel imager (Syngene). The intensity of the supercoiled DNA band was quantified using Syngene software, and the inhibition of the supercoiling of the DNA by the compounds was calculated.

[3] = molecular target: T2, WT DNA gyrase (Staphylococcus aureus, UniProt P0A0K8+P20831); assay: DNA gyrase supercoiling inhibition assay; format: biochemical, S. aureus
T2 construct: purchased Inspiralis Ltd. (Norwich, UK)
Protocol: as §1

[4] = system: S. aureus; assay: Serial passaging, MIC of adapted strains; format: cell-based; conditions: Staphylococcus aureus
Protocol: MICs were performed on the first and 10th passage.

[5] = Kinetic aqueous solubility; format: physicochemical; conditions: phosphate-buffered saline with 2% DMSO, pH 7.4, aqueous buffer, kinetic from dmso stock
Protocol: Kinetic aqueous solubility was determined using a standard LC-UV/MS-based assay. Test compounds were prepared from 10 mM DMSO stock solutions and diluted to a nominal concentration of 200 μM in phosphate-buffered saline (PBS, pH 7.4) containing 2% DMSO. Parallel dilutions in DMSO were used as reference standards. Samples were equilibrated at room temperature for 2 h with shaking, then filtered, and the filtrates were analyzed by LC-UV with mass spectrometric confirmation of the analyte peak. Solubility was determined by comparing the UV peak area of the PBS filtrate with those of the DMSO reference standards. The effective range of the assay was 10–200 μM.

[6] = Plasma protein binding (RED); format: in vitro ADME; conditions: pH 7.4
Protocol: Plasma protein binding was measured using a Rapid Equilibrium Dialysis (RED) assay. Test compounds and control compounds were added to plasma at 10 μM and dialyzed against phosphate-buffered saline (PBS, pH 7.4) for 4 h at 37 °C. […] The percentage of drug bound to plasma proteins was calculated by comparing the analyte response in the plasma compartment with that in the buffer compartment.

[7] = system: WI38; assay: Toxicity in nontumor eukaryotic cell line; format: cell-based; conditions: 100 μM, the highest concentration tested
[8] = molecular target: CYP1A (Homo sapiens, UniProt P05177); assay: CYP inhibition; conditions: human liver microsomes, probe phenacetin, HLM, phenacetin substrate
Protocol: (§2) Cytochrome P450 inhibition was assessed in vitro using human recombinant enzymes in microsomal preparations. […] Enzyme activity was quantified by monitoring formation of substrate-specific metabolites, and percent inhibition was calculated relative to vehicle control.

[9] = molecular target: CYP2C19 (Homo sapiens, UniProt P33261); assay: CYP inhibition; conditions: HLM, omeprazole substrate; for CYP2C19 inhibition: 10 μM
Protocol: as §2

[10] = molecular target: CYP2D6 (Homo sapiens, UniProt P10635); assay: CYP inhibition; conditions: HLM, dextromethorphan substrate, 10 μM
Protocol: as §2

[11] = system: NorA overexpressing strain NCTC 13616; assay: Reserpine growth (efflux inhibition) assay; conditions: for AUC of growth curve: biological replicates 1-3; for efflux liability in reserpine assay: 0.5x MIC with vs without reserpine
Protocol: Statistical analyses were performed with GraphPad Prism V9.5.0. […] Unpaired t tests were used when comparing two samples in the gyrase assays.

[12] = system: MRSA ATCC 33591; assay: Neutropenic murine thigh infection model; conditions: oral 50 mg/kg TID at 2, 8, and 14 h postinfection; at 26 h
[13] = 1199B adapted to 4 x MIC of Compound 7
[14] = 1199B adapted to 4 x MIC of Compound 46
[15] = 1199B adapted to 4 x MIC of Compound 50
[16] = 1199B adapted to 4 x MIC of Compound 51
[17] = 1199 adapted to 4 x MIC of Compound 7
[18] = 1199 adapted to 4 x MIC of Compound 46
[19] = 1199 adapted to 4 x MIC of Compound 50
[20] = 1199 adapted to 4 x MIC of Compound 51
[21] = NCTC13616, NCTC 13616 adapted to 4 x MIC of Compound 7
[22] = NCTC13616, NCTC 13616 adapted to 4 x MIC of Compound 46
[23] = NCTC13616, NCTC 13616 adapted to 4 x MIC of Compound 50
[24] = NCTC13616, NCTC 13616 adapted to 4 x MIC of Compound 51

CYP2D6, sequence (P10635 whole entry): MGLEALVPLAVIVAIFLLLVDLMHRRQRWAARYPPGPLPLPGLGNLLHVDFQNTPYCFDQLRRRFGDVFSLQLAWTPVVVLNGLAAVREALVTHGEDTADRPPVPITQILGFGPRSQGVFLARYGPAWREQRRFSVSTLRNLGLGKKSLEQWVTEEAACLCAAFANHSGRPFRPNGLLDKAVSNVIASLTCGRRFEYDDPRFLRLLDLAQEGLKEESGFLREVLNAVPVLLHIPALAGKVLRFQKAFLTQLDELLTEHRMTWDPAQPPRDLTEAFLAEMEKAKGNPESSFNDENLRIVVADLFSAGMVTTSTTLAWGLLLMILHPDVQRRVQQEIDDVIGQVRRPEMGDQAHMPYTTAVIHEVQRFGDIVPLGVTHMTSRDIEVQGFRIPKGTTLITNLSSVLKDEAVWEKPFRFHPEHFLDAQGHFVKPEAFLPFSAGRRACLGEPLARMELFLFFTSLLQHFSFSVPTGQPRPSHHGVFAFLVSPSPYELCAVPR
CYP2C19, sequence (P33261 whole entry): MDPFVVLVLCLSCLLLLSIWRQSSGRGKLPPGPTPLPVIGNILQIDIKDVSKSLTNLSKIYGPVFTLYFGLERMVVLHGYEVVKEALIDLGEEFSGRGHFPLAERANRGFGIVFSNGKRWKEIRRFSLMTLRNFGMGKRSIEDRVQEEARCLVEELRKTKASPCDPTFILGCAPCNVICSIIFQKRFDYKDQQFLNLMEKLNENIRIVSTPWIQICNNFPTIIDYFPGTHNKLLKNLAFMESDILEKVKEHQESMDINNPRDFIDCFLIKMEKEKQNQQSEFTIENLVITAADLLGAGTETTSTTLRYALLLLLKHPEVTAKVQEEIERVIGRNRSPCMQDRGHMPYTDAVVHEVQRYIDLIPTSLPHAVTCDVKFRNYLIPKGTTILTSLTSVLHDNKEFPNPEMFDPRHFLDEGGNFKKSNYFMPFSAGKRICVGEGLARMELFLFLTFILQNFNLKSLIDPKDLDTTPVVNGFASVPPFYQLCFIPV
CYP1A, sequence (P05177 whole entry): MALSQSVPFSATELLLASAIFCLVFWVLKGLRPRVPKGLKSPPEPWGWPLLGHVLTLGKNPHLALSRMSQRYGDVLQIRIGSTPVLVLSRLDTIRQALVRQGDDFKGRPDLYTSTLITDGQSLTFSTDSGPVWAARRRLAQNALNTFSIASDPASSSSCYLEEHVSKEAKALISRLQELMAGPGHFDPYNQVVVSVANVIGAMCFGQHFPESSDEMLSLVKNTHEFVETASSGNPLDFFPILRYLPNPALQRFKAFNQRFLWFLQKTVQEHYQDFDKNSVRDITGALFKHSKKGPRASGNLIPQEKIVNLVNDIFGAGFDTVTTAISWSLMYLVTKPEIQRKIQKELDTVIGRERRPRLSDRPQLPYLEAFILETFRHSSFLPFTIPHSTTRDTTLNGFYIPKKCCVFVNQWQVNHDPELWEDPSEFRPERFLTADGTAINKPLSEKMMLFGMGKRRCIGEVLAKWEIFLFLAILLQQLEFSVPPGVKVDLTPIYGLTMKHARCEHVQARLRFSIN

## C[C@H]1COc2c(N3CC[C@@H](Nc4ncccn4)C3)c(F)cc3c(=O)c(C(=O)O)cn1c23 [Compound 46, (S)-9-Fluoro-3-methyl-7-oxo-10-((R)-3-(pyrimidin-2-ylamino)pyrrolidin-1-yl)-2,3-dihydro-7H-[1,4]oxazino[2,3,4-ij]quinoline-6-carboxylic acid]
[1]; 319238/UR
  MIC: 16 µg/mL (≈ 37.6 µM)
[1]; LEC006
  MIC: 0.125 µg/mL (≈ 0.294 µM)
[1]; LEC007
  MIC: 0.125 µg/mL (≈ 0.294 µM)
[1]; LEC077
  MIC: 4 µg/mL (≈ 9.4 µM)
[1]; LEC081
  MIC: 2 µg/mL (≈ 4.7 µM)
[1]; NCTC10418, NCTC 10418
  MIC: ≤ 0.06 µg/mL
[1]; NCTC11954, NCTC 11954
  MIC: 0.125 µg/mL (≈ 0.294 µM)
[1]; NCTC12241, NCTC 12241
  MIC: 0.06 µg/mL (≈ 0.141 µM)
[1]; NCTC12923, NCTC 12923
  MIC: 0.25 to 0.5 µg/mL (≈ 0.588 to 1.18 µM)
[2]
  IC50: 95.3 µM
[3]
  IC50: 7.92 µM
[4]; 1199B WT
  MIC: 0.015 µg/mL
[4]; [13]
  MIC: 0.03 µg/mL
[4]; [14]
  MIC: 0.125 µg/mL
[4]; [15]
  MIC: 0.25 µg/mL
[4]; [16]
  MIC: 0.06 µg/mL
[4]; 1199 WT
  MIC: 0.008 µg/mL
[4]; [17]
  MIC: 0.015 µg/mL
[4]; [18]
  MIC: 0.03 µg/mL
[4]; [19]
  MIC: 0.125 µg/mL
[4]; [20]
  MIC: 0.03 µg/mL
[4]; NCTC13616, NCTC 13616 WT
  MIC: 0.5 µg/mL
[4]; [21]
  MIC: 0.5 µg/mL
[4]; [22]
  MIC: 0.5 µg/mL
[4]; [23]
  MIC: 0.5 µg/mL
[4]; [24]
  MIC: 2 µg/mL
[5]
  solubility at 2 h: 183 µM (≈ 77.9 µg/mL)
[6]
  fraction unbound at 4 h, 10 μM: 0.42
[7]
  toxicity in WI38: nontoxic
[8]
  inhibition at 10 µM: 9.6%
[9]
  CYP2C19 inhibition: 0.6%
[10]
  CYP2D6 inhibition: 0.0%
[11]; 0.25 MIC + R (reserpine)
  AUC of growth curve: 3.991 and 3.857 and 2.348
[11]; 0.25 MIC
  AUC of growth curve: 5.243 and 5.279 and 3.696
[11]; 0.5 MIC + R (reserpine)
  AUC of growth curve: 3.930 and 3.864 and 2.013
[11]; 0.5 MIC
  AUC of growth curve: 4.798 and 3.349 and 3.713
[11]
  efflux liability in reserpine assay: minimal shift

## Cc1cc(C)nc(N[C@@H]2CCN(c3c(F)cc4c(=O)c(C(=O)O)cn5c4c3OC[C@@H]5C)C2)n1 [Compound 50, (S)-10-((R)-3-((4,6-Dimethylpyrimidin-2-yl)amino)pyrrolidin-1-yl)-9-fluoro-3-methyl-7-oxo-2,3-dihydro-7H-[1,4]oxazino[2,3,4-ij]quinoline-6-carboxylic acid]
[1]; 319238/UR
  MIC: 32 µg/mL (≈ 70.6 µM)
[1]; LEC006
  MIC: 0.5 µg/mL (≈ 1.1 µM)
[1]; LEC007
  MIC: 0.25 µg/mL (≈ 0.551 µM)
[1]; LEC077
  MIC: 8 µg/mL (≈ 17.6 µM)
[1]; LEC081
  MIC: 8 µg/mL (≈ 17.6 µM)
[1]; NCTC10418, NCTC 10418
  MIC: 0.125 µg/mL (≈ 0.276 µM)
[1]; NCTC11954, NCTC 11954
  MIC: 0.25 µg/mL (≈ 0.551 µM)
[1]; NCTC12241, NCTC 12241
  MIC: 0.25 µg/mL (≈ 0.551 µM)
[1]; NCTC12923, NCTC 12923
  MIC: 1 µg/mL (≈ 2.21 µM)
[2]
  IC50: 8.38 µM
[3]
  IC50: 5.56 µM
[4]; 1199B WT
  MIC: 0.03 µg/mL
[4]; [13]
  MIC: ≤ 0.015 µg/mL
[4]; [14]
  MIC: 0.125 µg/mL
[4]; [15]
  MIC: 0.25 µg/mL
[4]; [16]
  MIC: 0.03 µg/mL
[4]; 1199 WT
  MIC: 0.015 µg/mL
[4]; [17]
  MIC: 0.03 µg/mL
[4]; [18]
  MIC: ≤ 0.015 µg/mL
[4]; [19]
  MIC: 0.125 µg/mL
[4]; [20]
  MIC: ≤ 0.015 µg/mL
[4]; NCTC13616, NCTC 13616 WT
  MIC: 0.125 µg/mL
[4]; [21]
  MIC: 0.5 µg/mL
[4]; [22]
  MIC: 0.25 µg/mL
[4]; [23]
  MIC: 0.5 µg/mL
[4]; [24]
  MIC: 1 µg/mL
[5]
  solubility at 2 h: 156 µM (≈ 70.6 µg/mL)
[6]
  fraction unbound at 4 h, 10 μM: 0.28
[7]
  toxicity in WI38: nontoxic
[8]
  inhibition at 10 µM: 16%
[9]
  CYP2C19 inhibition: < 10%
[9]; human, human liver microsomes, probe omeprazole, CYP2C19 inhibition
  inhibition at 10 µM: 9.87%
[10]
  CYP2D6 inhibition: 3.804% and < 10%
[12]
  bacterial counts in thigh: 4.6 log10 CFU/g
  reduction relative to the vehicle: 4.1 log10 CFU/g
[11]; 0.25 MIC + R (reserpine)
  AUC of growth curve: 2.985 and 3.342 and 3.404
[11]; 0.25 MIC
  AUC of growth curve: 3.519 and 4.693 and 4.851
[11]; 0.5 MIC + R (reserpine)
  AUC of growth curve: 1.548 and 1.586 and 2.254
[11]; 0.5 MIC
  AUC of growth curve: 2.203 and 2.425 and 1.859
[11]
  efflux liability in reserpine assay: minimal shift

## C[C@H]1COc2c(N3CCN(C)CC3)c(F)cc3c(=O)c(C(=O)O)cn1c23 [Levofloxacin, (S)-9-Fluoro-3-methyl-10-(4-methylpiperazin-1-yl)-7-oxo-2,3-dihydro-7H-[1,4]oxazino[2,3,4-ij]quinoline-6-carboxylic acid, reference compound]
[1]; 319238/UR
  MIC: 8 µg/mL (≈ 22.1 µM)
[1]; LEC006
  MIC: ≤ 0.06 µg/mL
[1]; LEC007
  MIC: ≤ 0.06 µg/mL
[1]; LEC077
  MIC: 0.5 µg/mL (≈ 1.38 µM)
[1]; LEC081
  MIC: 0.5 µg/mL (≈ 1.38 µM)
[1]; NCTC10418, NCTC 10418
  MIC: ≤ 0.06 µg/mL
[1]; NCTC11954, NCTC 11954
  MIC: ≤ 0.06 µg/mL
[1]; NCTC12241, NCTC 12241
  MIC: ≤ 0.06 µg/mL
[1]; NCTC12923, NCTC 12923
  MIC: ≤ 0.016 µg/mL
[2]; S84L mutant enzyme, read-out: IC50 (converted)
  IC50: 545 µM
[3]; WT enzyme, read-out: IC50 (converted)
  IC50: 24.1 µM
[4]; 1199B WT
  MIC: 1 µg/mL
[4]; [13]
  MIC: 4 µg/mL
[4]; [14]
  MIC: 2 µg/mL
[4]; [15]
  MIC: 4 µg/mL
[4]; [16]
  MIC: 2 µg/mL
[4]; 1199 WT
  MIC: 0.125 µg/mL
[4]; [17]
  MIC: 1 µg/mL
[4]; [18]
  MIC: 0.25 µg/mL
[4]; [19]
  MIC: 1 µg/mL
[4]; [20]
  MIC: 0.25 µg/mL
[4]; NCTC13616, NCTC 13616 WT
  MIC: 8 µg/mL
[4]; [21]
  MIC: > 32 µg/mL
[4]; [22]
  MIC: 16 µg/mL
[4]; [23]
  MIC: 16 µg/mL
[4]; [24]
  MIC: 32 µg/mL
[12]
  bacterial counts in thigh: 4.51 log10 CFU/g
